Test results: US20240301319A1, “PERFUMING COMPOSITIONS” (FIRMNICH SA, priority 2017, published 2024)

Tests used:
[1] = Volatility of perfuming compounds (Tables 4 to 10), with top/middle/bottom note type; assay type: physicochemical
Outline: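 Volatility is expressed in μg/l in air. Top notes are 70,000 to 100 μg/l, middle notes 99 to 50 μg/l, and bottom notes 49 to 0.1 μg/l. Compounds are grouped by olfactive family: watery, green, fruity, citrus, sweet, gourmand and woody.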

[2] = Odor threshold and odor value of perfuming compounds (Tables 4 to 10)
[3] = Table 10, perfuming compounds having a woody note, note type by volatility
[4] = Table 8, perfuming compounds having a sweet note
[5] = Table 8, perfuming compounds having a sweet note, note type by volatility
[6] = Table 9, perfuming compounds having a gourmand note, note type by volatility
[7] = note type (Top/Middle/Bottom) by volatility, perfuming compounds having a green note
[8] = perfuming compounds having a green note
[9] = Table 6, perfuming compounds having a fruity note
[10] = Table 6, perfuming compounds having a fruity note, note type by volatility
[11] = Table 7, citrus note, top, middle or bottom note
[12] = Table 7, citrus note, equals volatility divided by odor threshold

Structure (SMILES) | Type [1, 3] | Volatility ([1]; Table 10, woody note) | Odor Threshold ([2]; Table 10, woody note) | Type [1, 7] | Volatility (μg/l air) [1, 8] | Odor Threshold (μg/l air) [2, 8] | Type [1, 10] | also measured
CCCC(O)CC[C@@H]1[C@@H](C)CCCC1(C)C (mixture of isomers) | Bottom | 2.34 μg/l air | 5.92E−04 μg/l air |  |  |  |  | 
CC(=O)O[C@@H]1C(C)(C)CCC[C@]12CC=C(C)C[C@H]2C (racemic) | Bottom | 8.25 μg/l air | 3.79E−03 μg/l air |  |  |  |  | 
C/C=C/C(=O)[C@@H]1[C@@H](C)C=CCC1(C)C (racemic) |  |  |  |  |  |  |  | Volatility [1, 4]: 143.53 μg/l air; Type [1, 5]: Top; Volatility ([1]; Table 9, gourmand note): 143.53 μg/l air; Type [1, 6]: Top; Odor Threshold [2, 4]: 1.70E−05 μg/l air; Odor Value [2, 4]: 8.44E+06; Odor Threshold ([2]; Table 9, gourmand note): 1.70E−05 μg/l air
CC(=O)O[C@@H]1CC[C@@H]2C(C)(C)CCC[C@@]2(C)C1 (racemic) | Bottom | 14.41 μg/l air | 4.19E−04 μg/l air |  |  |  |  | 
CC1CC[C@@]2(O1)C(C)(C)CCC[C@@]2(C)O (mixture of isomers) | Middle | 84.04 μg/l air | 5.15E−04 μg/l air |  |  |  |  | 
CCC(O)COC1CCCCC1C(C)(C)C (racemic) | Top | 205.05 μg/l air | 3.53E−02 μg/l air |  |  |  |  | 
CCCC(O)CCC1C(C)CCC(C)C1(C)C (racemic) | Bottom | 3.42 μg/l air | 4.05E−04 μg/l air |  |  |  |  | 
C=C1C2CCC(C)(OCC)C1CCC2(C)C (racemic) | Top | 135.00 μg/l air | 1.37E−01 μg/l air |  |  |  |  | 
CCC(=CCC1CC=C(C)C1(C)C)CO (racemic) | Bottom | 3.69 μg/l air | 7.80E−05 μg/l air |  |  |  |  | 
C=CC1(C)CCCC(C)(C)O1 (racemic) |  |  |  | Top | 23116.66 μg/l air | 1.64E−01 μg/l air |  | 
CC1CC(C)(c2ccccc2)CO1 (racemic) |  |  |  | Top | 263.73 μg/l air | 5.04E−04 μg/l air | TOP (perfuming compounds having a volatility ranging from 70,000 to 100 μg/l in air are referred to as “top notes”) | Volatility [1, 9]: 263.73 μg/l air
C=CC(C)CC(=O)CC(C)C (racemic) |  |  |  |  |  |  | TOP (perfuming compounds having a volatility ranging from 70,000 to 100 μg/l in air are referred to as “top notes”) | Volatility [1, 9]: 4203.89 μg/l air; Volatility (μg/l air) ([1]; Table 7, citrus note): 4203.89 μg/l air; Type [1, 11]: Top; Odor Threshold (μg/l air) ([2]; Table 7, citrus note): 2.78E−01 μg/l air; Odor Value [2, 12]: 1.51E+04
CC1=CCC(CCC(C)C(C)O)C1(C)C (racemic) | Bottom | 5.22 μg/l air | 1.52E−03 μg/l air |  |  |  |  | 
CC1=CCC2C(C1)C1CC2C2(C1)OC2C (racemic) |  |  |  | Bottom | 36.76 μg/l air | 9.93E−04 μg/l air | Bottom | Volatility [1, 9]: 36.76 μg/l air; Odor Threshold [2, 9]: 9.93E−04 μg/l air; Odor Value [2, 9]: 3.70E+04
CC1CCC2C(C)(C)C3CC12CCC3(C)O (racemic) | Bottom | 11.83 μg/l air | 3.38E−02 μg/l air |  |  |  |  | 
CC(C)CCCC(C)CCO (racemic) |  |  |  |  |  |  |  | Volatility (μg/l air) ([1]; Table 7, citrus note): 76.57 μg/l air; Type [1, 11]: Middle; Odor Threshold (μg/l air) ([2]; Table 7, citrus note): 4.59E−02 μg/l air; Odor Value [2, 12]: 1.67E+03

Structure (SMILES) | Type [1, 3] | Volatility ([1]; Table 10, woody note) | Odor Threshold ([2]; Table 10, woody note) | Type [1, 7] | Volatility (μg/l air) [1, 8] | Odor Threshold (μg/l air) [2, 8] | Type [1, 10] | also measured
CCC(C)(O)CCCC(C)C (racemic) |  |  |  | Top | 421.15 μg/l air | 3.45E−03 μg/l air |  | 
C=C(C)CC(C)OC(=O)C(C)C (racemic) |  |  |  |  |  |  | TOP (perfuming compounds having a volatility ranging from 70,000 to 100 μg/l in air are referred to as “top notes”) | Volatility [1, 9]: 9902.98 μg/l air; Volatility [1, 4]: 9902.98 μg/l air; Type [1, 5]: Top; Volatility ([1]; Table 9, gourmand note): 9902.98 μg/l air; Type [1, 6]: Top; Odor Threshold [2, 4]: 2.26E−01 μg/l air; Odor Value [2, 4]: 4.39E+04; Odor Threshold ([2]; Table 9, gourmand note): 2.26E−01 μg/l air
CC1COCc2cc3c(cc21)C(C)(C)C(C)C3(C)C (racemic) |  |  |  |  |  |  | Bottom | Volatility [1, 9]: 1.59 μg/l air; Odor Threshold [2, 9]: 2.62E−04 μg/l air; Odor Value [2, 9]: 6.08E+03
CC1OCCC12NCCS2 (racemic) |  |  |  |  |  |  |  | Volatility [1, 4]: 52.47 μg/l air; Type [1, 5]: Middle; Odor Threshold [2, 4]: 2.53E−06 μg/l air; Odor Value [2, 4]: 2.07E+07
COC(C)(C)CCCC(C)C(C)O (racemic) | Bottom | 35.54 μg/l air | 2.66E−02 μg/l air |  |  |  |  | 
COC(=O)C1C(C)=CCCC1(C)C (racemic) |  |  |  | Top | 2010.91 μg/l air | 1.06E−02 μg/l air |  | 
CC1CCCC2(C)CCCCC12O (racemic) |  |  |  | Top | 330.48 μg/l air | 5.32E−06 μg/l air |  | 
CC1=C[C@H](C)[C@H]2[C@H](CCC(C)(C)[C@H]2O)C1 (racemic) |  |  |  | Bottom | 48.90 μg/l air | 8.15E−04 μg/l air | Bottom | Volatility [1, 9]: 48.90 μg/l air; Odor Threshold [2, 9]: 8.15E−04 μg/l air; Odor Value [2, 9]: 6.00E+04
C/C=C/C(=O)C1C(C)=CCCC1(C)C (racemic) | Top | 110.53 μg/l air | 1.04E−04 μg/l air | Top | 110.53 μg/l air | 1.04E−04 μg/l air | TOP (perfuming compounds having a volatility ranging from 70,000 to 100 μg/l in air are referred to as “top notes”) | Volatility [1, 4]: 110.53 μg/l air; Type [1, 5]: Top; Odor Threshold [2, 9]: 1.04E−04 μg/l air; Odor Threshold [2, 4]: 1.04E−04 μg/l air; Odor Value [2, 4]: 1.06E+06
CC(=O)/C=C/C1C(C)=CCCC1(C)C (racemic) |  |  |  | Middle | 68.11 μg/l air | 5.30E−04 μg/l air |  | 
CC(=O)/C(C)=C(/C)C(C)C(C)(C)C (racemic) | Top | 659.22 μg/l air | 7.24E−02 μg/l air |  |  |  |  | 
CC(C)=CCCC(C)CCOCC=O (racemic) |  |  |  |  |  |  |  | Volatility (μg/l air) ([1]; Table 7, citrus note): 4.70 μg/l air; Type [1, 11]: Bottom; Odor Threshold (μg/l air) ([2]; Table 7, citrus note): 8.95E−04 μg/l air; Odor Value [2, 12]: 5.26E+03
C=C1CCCC(C)(C)C1C(=O)/C=C/C (racemic) |  |  |  |  |  |  | TOP (perfuming compounds having a volatility ranging from 70,000 to 100 μg/l in air are referred to as “top notes”) | Volatility [1, 9]: 152.99 μg/l air; Volatility [1, 4]: 152.99 μg/l air; Type [1, 5]: Top; Volatility ([1]; Table 9, gourmand note): 152.99 μg/l air; Type [1, 6]: Top; Odor Threshold [2, 4]: 3.73E−03 μg/l air; Odor Value [2, 4]: 4.10E+04; Odor Threshold ([2]; Table 9, gourmand note): 3.73E−03 μg/l air
CC(=O)/C(C)=C/C1C(C)=CCCC1(C)C (racemic) | Top | 106.28 μg/l air | 5.03E−05 μg/l air |  |  |  | Bottom | Volatility [1, 9]: 36.33 μg/l air; Odor Threshold [2, 9]: 1.92E−04 μg/l air; Odor Value [2, 9]: 1.89E+05
CC(=O)/C=C/C1C(C)CCC(C)C1(C)C (racemic) | Bottom | 20.50 μg/l air | 5.14E−04 μg/l air |  |  |  |  | 
C=C(C)CC(C(C)=O)C(=O)OCC (racemic) |  |  |  | Top | 295.22 μg/l air | 3.64E−03 μg/l air | TOP (perfuming compounds having a volatility ranging from 70,000 to 100 μg/l in air are referred to as “top notes”) | Volatility [1, 9]: 295.22 μg/l air
